{"source": "ChEMBL document CHEMBL1128334", "about": "“X-ray crystal structure, partitioning behavior, and molecular modeling study of piracetam-type nootropics: insights into the pharmacophore” (J Med Chem, 1995)", "data": [{"assay": "(§1) Partition coefficient (logP)", "type": "physicochemical", "conditions": "octanol/water", "values": [{"smiles": "O=C1CC2C(=O)NCC2CN1", "note": "(stereo in doubt; 2)", "logP": -2.11}, {"smiles": "O=C1CC2C(=O)NCC2CN1", "note": "(stereo in doubt; 3)", "logP": -2}, {"smiles": "CCOC(=O)C1CNC(=O)CC1C(=O)OCC", "note": "(stereo in doubt; 6)", "logP": -0.03}, {"smiles": "CCOC(=O)C1CNC(=O)CC1C(=O)OCC", "note": "(stereo in doubt; 7)", "logP": 0.17}]}, {"assay": "as §1", "type": "physicochemical", "conditions": "octanol/water; read-out: logP", "values": [{"smiles": "O=C1CCCCN1", "logP": -0.47}, {"smiles": "O=C1NCC[C@@H]2CNC(=O)[C@H]12", "logP": -1.95}, {"smiles": "O=C1CCCN1", "note": "[2-PYRROLIDONE]", "logP": -0.71}, {"smiles": "NC(=O)CN1CCCC1=O", "note": "[PIRACETAM]", "logP": -1.54}, {"smiles": "O=C1CCC2CCC(=O)N12", "note": "[ROLZIRACETAM]", "logP": -1.11}]}]}
